# Results reported in patent US6814966B1, “Methods for treating glaucoma” (Pharmacia Corporation, priority 2000, dated 2004).
# Test system: retinal ganglion cells in co-cultures with glial cells
# Assay: TUNEL apoptosis of retinal ganglion cells in co-cultures with glial cells under stress conditions
# Format: cell-based, rat
# Conditions: for decrease of rate of positive TUNEL: antibody 10 ug/ml, 1400W 2.5 uM
# Protocol: Retinal ganglion cell cultures. Primary cultures of retinal ganglion cells were derived from newborn rat retinas using a protocol similar to that recently described^70. All experiments were performed in accordance with the ARVO Statement for the Use of Animals in Ophthalmic and Vision Research and were approved by The Animal Studies Committee of Washington University. Five to seven days old Sprague-Dawley rats were anesthetized and their eyes were enucleated. The eyes were rinsed with CO2-independent culture medium (Gibco, Grand Island, N.Y.) and retinas were mechanically dissected under a microscope. To prepare retinal cell suspensions, tissues were dissociated in Eagles's minimum essential medium containing 20 U/ml papain, 1 mM L-cystein 0.5 mM EDTA and DNase (0.005%) (Worthington, Lakewood, N.J.) at 37° C. for 40 minutes. Then, retinas were rinsed in an inhibitor solution containing Eagle's minimum essential medium, ovomucoid (0.2%) (US Biological, Swampscott, Mass.), DNAase (0.04%) and bovine serum albumin (0.1%) (Sigma, St. Louis, Mo.). At the end of treatment period, tissues were triturated through a 1 ml plastic pipette to yield a suspension of single cells. The retinal cells were spun at 400 g for 10 minutes, resuspended in Eagle's minimum essential medium containing bovine serum albumin (0.05%) and incubated in a tissue culture incubator until their immediate use for subsequent separation by immunomagnetic selection^71,72.
# Immunomagnetic selection of the retinal ganglion cells was performed using magnetic, 2.8±0.2 um diameter, polystyrene beads coated with biotinylated rat monoclonal antibody against mouse IgG1 (Dynal, Oslo, Norway) in a two step process. In the first step, after washing with phosphate buffered saline solution containing 0.1% bovine serum albumin, 1×10^7 beads/ml were added to monoclonal antibody against macrophage surface antigens (100 ug/ml) (Sigma). After incubation at room temperature on a rotator for 30 minutes, beads were washed using a specially designed magnet (Dynal). […]
smiles,measurement,setting,value
"CC(=N)NCc1cccc(CN)c1.Cl.Cl [1400W, N-(3-(aminomethyl)benzyl)acetamidine. dihydrochloride]",decrease of rate of positive TUNEL,co-cultures under elevated hydrostatic pressure,approximately 35%
same,decrease of rate of positive TUNEL,co-cultures under simulated ischemia,approximately 50%
same,attenuation of retinal ganglion cell apoptosis,"summary statement, simulated ischemia and elevated hydrostatic pressure, stressor not specified",~50%
